These results are taken from article PMC6211316, “Synthesis and biological evaluation of 3-arylcoumarin derivatives as potential anti-diabetic agents” (Journal of Enzyme Inhibition and Medicinal Chemistry, 2018).

The test system of one assay is AGEs formation. Kind of assay: In vitro inhibitory activity of AGEs formation (bovine serum albumin/glucose). Format: biochemical. The conditions noted are these: mean ± SD (n = 3). The method in brief:
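Bovine serum albumin (10 mg/mL) with 0.2 M glucose in 50 mM PBS, pH 7.4, plus 0.02% sodium azide, was mixed with compound solutions (0.5–1000 μg/mL in DMSO) and held 14 d at 37 °C. AGE fluorescence was read at ex 350/em 420 nm in triplicate. Inhibition was corrected with glucose-free blanks, and IC50 calculated.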

The subject of assay [1] is STZ-induced hyperglycemic mice. The arrangement: method as in PMID 20040119. The settings on record: 100 mg/kg/day; cited from earlier work.

What is called IC50 is the point on the concentration scale where inhibition reaches its midpoint. On to `N=C(N)NN` [AG, amino guanidine, reference compound], for which the IC50 in the assay on AGEs formation amounted to 270 ± 7.19 µM. Besides, the “effect on STZ-induced hyperglycemic mice” value in assay [1] is reported as “no significant effect”.
